Source: US20100035857A1, “ANTI-HYPERCHOLESTEROLEMIC COMPOUNDS” (priority 2006, published 2010)

Test system: cholesterol absorption
Assay: Cholesterol Absorption Assay in Rats
Assay type: in vivo
Conditions: CD male rats, oral, at the highest dose tested; [3H]-cholesterol counts in liver and plasma
Experimental: Compounds can be tested for cholesterol absorption activity in assays using, e.g., rats or mice, and are preferably tested in the rat assay described herein. Representative compounds of this invention were determined to inhibit cholesterol absorption employing the Cholesterol Absorption Assay in Rats, below. This assay involves comparing a test compound to ezetimibe with respect to their ability to inhibit cholesterol absorption in rats.
Cholesterol Absorption Assay in Rats: CD male rats (n=5/group), aged 5 weeks, were dosed orally with 0.5 ml 0.25% methyl cellulose solution with or without test compound or ezetimibe (0.0003 to 1 mg/kg). 0.5 to 16 hrs later all of the rats were dosed orally with 0.5 ml […]® containing 5 μCi [^3H]-cholesterol per rat. Five hours later, the animals were euthanized, and liver and blood were collected. Cholesterol counts in liver and plasma were determined, and percent inhibition of cholesterol absorption was calculated.

`O=C1[C@H](CC[C@H](O)c2ccc(F)cc2)[C@@H](c2ccc(O)cc2)N1c1ccc(F)cc1` [ezetimibe, Ezetimibe] was tested, and the “inhibition of cholesterol absorption” value was > 75%.
